# Test results from US9457004B2, “Opsin-binding ligands, compositions and methods of use” (priority 2011, dated 2016).
# Tested on: P23H opsin
# Assay: Rhodopsin purification and regeneration (P23H cells treated with compound, regenerated with 9-cis-retinal, 480-500 nm absorbance)
# Conditions: FIG. 1; P23H opsin treated with 20 μM during mutant protein production, relative to vehicle (DMSO) alone
smiles,measurement,value
"CC(=O)/C=C/C1=C(C)CCCC1(C)C [β-ionone, reference compound]",regeneration of 500 nm absorbing pigment upon treatment with retinal,increase
